Literature values in PMC5144109 (Analytical Chemistry, 2016).
“Also recorded” adds a separate entry of the source. Square brackets hold non-standard residues; d marks the D form. Ends that are not written are not given here.

Experiments:
aminopeptidase M (APM) = biological target: T1, aminopeptidase M (APM) (Sus scrofa, UniProt P15145); settings: positive and negative control of the digestion experiments
T1 sequence (P15145 1-963): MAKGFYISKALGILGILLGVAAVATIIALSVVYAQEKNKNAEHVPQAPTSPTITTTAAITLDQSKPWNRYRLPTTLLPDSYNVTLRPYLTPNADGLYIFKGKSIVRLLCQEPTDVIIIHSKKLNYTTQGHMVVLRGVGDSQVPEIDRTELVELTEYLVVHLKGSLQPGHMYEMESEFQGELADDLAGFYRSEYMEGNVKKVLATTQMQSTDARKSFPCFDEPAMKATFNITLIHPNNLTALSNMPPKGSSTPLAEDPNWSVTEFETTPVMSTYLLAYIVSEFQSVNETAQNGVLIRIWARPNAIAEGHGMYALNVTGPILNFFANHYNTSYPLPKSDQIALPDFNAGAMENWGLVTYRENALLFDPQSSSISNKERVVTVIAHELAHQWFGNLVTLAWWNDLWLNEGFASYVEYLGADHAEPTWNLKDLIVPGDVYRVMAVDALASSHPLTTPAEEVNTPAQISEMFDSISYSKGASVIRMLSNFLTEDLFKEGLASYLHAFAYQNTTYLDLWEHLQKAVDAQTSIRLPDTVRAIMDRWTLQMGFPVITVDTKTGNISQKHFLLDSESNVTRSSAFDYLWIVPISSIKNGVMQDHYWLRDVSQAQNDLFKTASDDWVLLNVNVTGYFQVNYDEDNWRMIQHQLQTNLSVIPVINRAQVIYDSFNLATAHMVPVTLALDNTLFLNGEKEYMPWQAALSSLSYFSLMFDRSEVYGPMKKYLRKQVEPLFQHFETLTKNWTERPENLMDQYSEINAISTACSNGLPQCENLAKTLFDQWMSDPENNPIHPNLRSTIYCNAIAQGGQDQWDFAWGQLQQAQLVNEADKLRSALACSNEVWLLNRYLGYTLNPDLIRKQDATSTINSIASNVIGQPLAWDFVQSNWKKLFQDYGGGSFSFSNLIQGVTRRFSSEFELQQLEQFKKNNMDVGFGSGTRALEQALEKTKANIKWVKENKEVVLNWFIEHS

opioid receptors = settings: in mammals

Substance | digestion by APM (control peptides) (aminopeptidase M (APM)) | potency compared with morphine (opioid receptors)
Human angiotensin I acetate salt hydrate | is digested by APM | –
dermorphin | – | higher potency than morphine
Asn-[dW]-Phe-NH2 [NdWFamide] | is not digested by APM; also recorded: known to resist degradation by APM | –
